Source: ChEMBL document CHEMBL3046739, “Effects of imidacloprid on transmission of tomato spotted wilt tospovirus to pepper, tomato and tobacco by Frankliniella fusca Hinds (Thysanoptera: Thripidae)” (2001)
The source made the active and inactive calls. The calls are words filed in the database; no cut-off is given here.

Key:
[1] = tested on: Frankliniella fusca; experiment: Insecticidal activity against Frankliniella fusca assessed as effect on probing/feeding bout on pepper plants at 14.4 g a.i./1000 plants measured as duration of potential drops by electronic penetration graph analysis (reference value: 0.04 +/- 0.02 min); assay type: functional
[2] = tested on: Frankliniella fusca; experiment: Insecticidal activity against Frankliniella fusca assessed as effect on probing/feeding bout on pepper plants at 14.4 g a.i./1000 plants measured as number of potential drops by electronic penetration graph analysis (reference value: 0.28 +/- 0.03 /hr); assay type: functional
[3] = tested on: Frankliniella fusca; experiment: Insecticidal activity against Frankliniella fusca assessed as effect on probing/feeding bout on mustard plants at 14.4 g a.i./1000 plants measured as duration of potential drops by electronic penetration graph analysis (reference value: 0.06 +/- 0.03 min); assay type: functional
[4] = tested on: Frankliniella fusca; experiment: (§1) Insecticidal activity against Frankliniella fusca assessed as reduction in tomato spotted wilt tospovirus transmission in compound pre-treated pepper plant at 11.3 g a.i./1000 plants 8 days prior to 48 hr insect-infestation followed by foliar application at 7.1 g a.i./1000 plants measured after 21 days in field conditions; assay type: functional; design: scale not given: the % may be the effect or the level left
[5] = tested on: Frankliniella fusca; experiment: Insecticidal activity against Frankliniella fusca assessed as effect on probing/feeding bout on mustard plants at 7.1 g a.i./1000 plants measured as duration of potential drops by electronic penetration graph analysis (reference value: 1.28 +/- 0.15 min); assay type: functional
[6] = tested on: Frankliniella fusca; experiment: Insecticidal activity against Frankliniella fusca immature thrips isolated from infected tobacco plants assessed reduction in tomato spotted wilt tospovirus transmission on petunia leaf by DAS-ELISA; assay type: functional; design: scale not given: the % may be the effect or the level left
[7] = tested on: Frankliniella fusca; experiment: as §1, with “compound pretreated” for “compound pre-treated”, “at 9.9” for “at 11.3”, “plants 60” for “plants 8”, “in green house” for “in field”; assay type: functional; design: scale not given: the % may be the effect or the level left
[8] = tested on: Frankliniella fusca; experiment: Insecticidal activity against Frankliniella fusca assessed as effect on probing/feeding bout on pepper plants at 7.1 g a.i./1000 plants measured as duration of potential drops by electronic penetration graph analysis (reference value: 0.01 +/- 0.01 min); assay type: functional
[9] = tested on: Frankliniella fusca; experiment: Insecticidal activity against Frankliniella fusca assessed as effect on probing/feeding bout on mustard plants at 7.1 g a.i./1000 plants measured as number of potential drops by electronic penetration graph analysis (reference value: 0.7 +/- 0.11 /hr); assay type: functional
[10] = tested on: Frankliniella fusca; experiment: as §1, with “pre-treated tomato” for “pre-treated pepper”, “at 9.9” for “at 11.3”, “plants 60” for “plants 8”, “in green house” for “in field”; assay type: functional; design: scale not given: the % may be the effect or the level left
[11] = tested on: Frankliniella fusca; experiment: Insecticidal activity against Frankliniella fusca assessed as tomato spotted wilt tospovirus transmission in compound pre-treated tobacco plant at 9.9 g a.i./1000 plants 60 days prior to 48 hr insect-infestation followed by foliar application at 7.1 g a.i./1000 plants measured after 21 days in green house conditions (reference value: 82.5 +/- 0.05%); assay type: functional
[12] = tested on: Frankliniella fusca; experiment: Insecticidal activity against Frankliniella fusca assessed as effect on probing/feeding bout on pepper plants at 7.1 g a.i./1000 plants measured as number of potential drops by electronic penetration graph analysis (reference value: 0.03 +/- 0.01 /hr); assay type: functional
[13] = tested on: Frankliniella fusca; experiment: as §1, with “pretreated tomato” for “pre-treated pepper”; assay type: functional; design: scale not given: the % may be the effect or the level left
[14] = tested on: Frankliniella fusca; experiment: Insecticidal activity against Frankliniella fusca assessed as reduction in number of thrips isolated per compound pre-treated tobacco plant infected with tomato spotted wilt tospovirus at 9.9 g a.i./1000 plants in green house conditions relative to control; assay type: functional, organism-based
[15] = tested on: Frankliniella fusca; experiment: Insecticidal activity against Frankliniella fusca assessed as effect on probing/feeding bout on mustard plants at 14.4 g a.i./1000 plants measured as number of potential drops by electronic penetration graph analysis (reference value: 0.2 +/- 0.09 /hr); assay type: functional

With `O=[N+]([O-])/N=C1\NCCN1Cc1ccc(Cl)nc1` [IMIDACLOPRID] as the molecule, how does the Time [1] read?
The Time was 0.52 min.

And the Activity [2]?
The Activity was 1.84 h⁻¹.

What about the Time [3] of the same molecule?
The Time was 0.79 min.

What about the Activity [4] of the same molecule?
Its Activity is 73%.

And the Time [5]?
Its Time is 1.41 min.

And the Activity [6]?
Its Activity is 6.4%.

And the Activity [7]?
The Activity was 74%.

And the Time [8]?
The Time was 0.39 min.

What about the Activity [9] of the same molecule?
The Activity was 2.12 h⁻¹.

What about the Activity [10] of the same molecule?
The Activity was 82%.

What about the Activity [11] of the same molecule?
The Activity was 11.1%.

What about the Activity [12] of the same molecule?
The Activity was 1.53 h⁻¹.

What about the Activity [13] of the same molecule?
Its Activity is 87%.

What about the Activity [14] of the same molecule?
Its Activity is “Active”.

And the Activity [15]?
Its Activity is 1.53 h⁻¹.
